Assay [1] can be described thus: Antagonist activity at PAR1 in human platelets assessed as inhibition of thrombin-induced platelet aggregation.
Assay [2] is described as follows: Antagonist activity at PAR1 in human platelets assessed as inhibition of haTRAP-induced platelet aggregation.

Take `CCOC(=O)N[C@@H]1CC[C@@H]2[C@@H](C1)C[C@H]1C(=O)O[C@H](C)[C@H]1[C@H]2C=Cc1ccc(-c2cccc(F)c2)cn1` [Ethyl [(3aR,4aR,8aR,9aS)-9(S)-[(E)-2-[5-(3-fluorophenyl)-2-pyridinyl]ethenyl]dodecahydro-1(R)-methyl-3-oxonaphtho[2,3-c]furan-6(R)-yl]carbamate]: the IC50 is 47 nM in assay [1] and 25 nM in assay [2].
